“Also recorded” adds a separate entry of the source. Counter-ions that a name gives are not always drawn. Like-named read-outs stand apart in the source and are kept apart here.
What was measured:
5-HT1B/1D receptor [1] = conditions: [125I]iodocyanopindolol 0.15 nM in striatum; exemplary protocol; read-out: Ki of reference compound, 5-HT1B/1D binding assay; cited from earlier work
α1 receptor = conditions: rat forebrain membranes, [3H]7-MeOxy-prazosin; exemplary protocol; read-out: Ki of reference compound, α1 binding assay; cited from earlier work
5-HT1A receptors [2] = biological target: T1, 5-HT1A receptors (Homo sapiens, UniProt P08908); conditions: proportion of maximal inhibition of forskolin-stimulated cAMP relative to 5-HT; Koek et al., 1998; cited from earlier work
T1 sequence (P08908 1-422): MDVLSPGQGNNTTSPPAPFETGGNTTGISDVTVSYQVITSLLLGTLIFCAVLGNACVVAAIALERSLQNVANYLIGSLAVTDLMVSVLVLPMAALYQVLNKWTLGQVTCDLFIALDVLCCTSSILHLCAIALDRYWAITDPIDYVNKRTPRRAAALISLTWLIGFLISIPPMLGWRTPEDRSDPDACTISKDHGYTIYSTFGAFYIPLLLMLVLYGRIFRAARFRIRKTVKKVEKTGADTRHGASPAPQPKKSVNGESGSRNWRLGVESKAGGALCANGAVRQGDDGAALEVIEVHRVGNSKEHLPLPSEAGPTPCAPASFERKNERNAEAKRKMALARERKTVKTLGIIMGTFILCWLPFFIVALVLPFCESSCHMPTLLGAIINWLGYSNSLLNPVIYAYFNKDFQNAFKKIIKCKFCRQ

[3] = system: other 5-HT receptor subtypes or other neurotransmitter receptors; conditions: reported; cited from earlier work
5-HT1A receptors [4] = biological target: T1, 5-HT1A receptors; assay: 5-HT1A receptor affinity (Schipper et al., 1991); format: binding; conditions: for ΔpKi for 5-HT1A and D2 receptors: based on Ki values of Schipper et al.
mice (C57BL/6J; C3H) = assay: Peak procedure (peak interval procedure, PIP); format: in vivo; conditions: for effect on performance (relative response rate curve) in PIP 30 s task: C57BL/6J mice, vs saline
Protocol: The peak procedure is a behavioral model designed to assess an animal's ability to learn an appropriate time period in which to perform a task and a time period in which the animal will be rewarded if the task is performed. The model provides information concerning excitatory and inhibitory components of behavior, as subjects must respond to perform a task when appropriate and stop responding in an “empty trial” when time for reward has elapsed and the reward has not been delivered. The task is sensitive to conditions where there is a failure in inhibitory mechanisms, such as seems to be the case for ADHD (Pliszka et al., Biol. Psychiatry, 48:238-46, 2000).
In the peak procedure, mice are trained to work for food that is delivered at the same time in each trial, but withdrawn in some unreinforced trials. Typically, the response rate increases up to a maximum around the reinforcement time, and then decreases to a low toward the end of the trial. The shape of the response rate indicates whether the animal is sensitive to the time of reinforcement. To be able to perform well in this model, the animals need to be able to learn several tasks. First, the animal must make an association between a response (lever pressing, nose poking or key pecking) and the delivery of reward. Second, the animal must be able to perceive and remember time. Third, the animal must act on its remembered time by starting and then stopping or inhibiting the response. Fourth, the animal must be able to compare the elapsed time in the trials with its remembered time to reinforcement. In each trial the time clock is reset, and the animal must reset its internal “counter,” i.e., at the beginning of each trial animals should start “timing” the trial time from zero. The ability to perform this task depends on the animal's working memory. Starting the internal clock at the beginning of the trial requires that the animal pays attention to the trial start time, which could be in the form of a visual signal, or as reported herein, the introduction of a lever into the experimental chamber. […] Accuracy is measured by looking at the shape of the response function; therefore, if the response function is sharper and centered on the reinforcement time it supports a conclusion that attentional processes have been heightened.
All mice were food deprived to a target weight of 85-90% of their free-feeding weight before training began. Mice were fed approximately 10% of their body weight until they reached their target weight. On average, 1 week of food deprivation was sufficient to reach the target weight. During this time, all subjects were fed Bioserve 500 mg precision dustless pellets as their daily ration. They were exposed to Carnation™ evaporated milk in the home cage to avoid a possible neophobic reaction to the reinforcement. Subjects were given 1-week “vacations” every 4 to 6 weeks at which time they were allowed free access to food and a new free-feeding body weight baseline was recorded. Water was continuously available in the cage.
Once deprived, animals were trained to lever-press in an operant chamber using ultrasensitive levers. Sixteen mouse operant chambers (Med Associates, Georgia, Vt.) were configured identically with two retractable ultra-sensitive levers, stimulus lights, and a dipper for delivery of condensed milk. A house light was placed on the opposite wall from the levers. Each chamber was placed in isolation cubicle. A fan provided white masking noise and adequate air.
Training and testing consisted of 1-h daily sessions. Subjects started on a concurrent fixed ratio 1-fixed time 1 min (FR 1-FT 1) schedule of reinforcement in which the house light served as the discriminative stimulus. Food was delivered every 1 min but the delivery was immediate if the animal made a response. […] After no more than 1 week on this schedule, mice began training with a fixed-interval (FI) 10 s schedule in which all trials were separated by a 20 s, intertrial interval. […]

[5] = system: coloboma mutant (Cm) mice; assay: Open-field locomotor activity, coloboma mutant mice; format: in vivo
Description: (§1) Heterozygote coloboma mice were originally purchased from The Jackson Laboratory (Bar Harbor, Me.) and were bred and maintained in our colony. In the current study, mutant mice and wild-type littermates, all aged 8 to 10 weeks, were used. Animals were divided into 4 groups: mutant/drug-treatment, mutant/vehicle-control, wild-type/drug-treatment, wild-type/vehicle-control (n=4-13 per group). Age and gender were balanced among groups. All animals were housed as littermates (2-4 mice per cage) and were maintained on ad libitum food and water with a 12 hr light/dark cycle.
(§2) The Open-field (OF) test was performed under normal lighting conditions (400 lux). Mice (Cm/+, WT) were brought into the experimental room and allowed at least 1 hr of acclimation. […] Each mouse was then placed into an OF arena (27×27×20 cm) with an infrared beam array system (Med Associates, St. Albans, Vt.) that automatically monitored the animal's activity. Four animals of matching genotype and treatment were tested at one time. The test session lasted 40 min and animals were returned to the home cage at the end of the session. Test measures included locomotion (distance traveled in cm) and number of center entries (zone crossings).

wild-type mice = assay: Open-field locomotor activity, wild-type mice; format: in vivo
Description: as §1, §2

α1 adrenergic receptors = conditions: Schipper et al., 1991; cited from earlier work
5-HT1D receptors = conditions: Schipper et al., 1991; cited from earlier work
[6] = biological target: other neurotransmitter receptors; conditions: Schipper et al., 1991; cited from earlier work
5-HT1B/1D receptor [7] = conditions: [3H]5-CT […] or 2 nM in cortex; exemplary protocol; read-out: Ki of reference compound, 5-HT1B/1D binding assay; cited from earlier work
dopamine D2 receptors [8] = biological target: T2, dopamine D2 receptors (Homo sapiens, UniProt P14416); assay: Dopamine D2 receptor affinity (Schipper et al., 1991); format: binding; conditions: converted from Ki of Schipper et al., read-out: pKi for D2 receptors (converted)
T2 sequence (P14416 whole entry): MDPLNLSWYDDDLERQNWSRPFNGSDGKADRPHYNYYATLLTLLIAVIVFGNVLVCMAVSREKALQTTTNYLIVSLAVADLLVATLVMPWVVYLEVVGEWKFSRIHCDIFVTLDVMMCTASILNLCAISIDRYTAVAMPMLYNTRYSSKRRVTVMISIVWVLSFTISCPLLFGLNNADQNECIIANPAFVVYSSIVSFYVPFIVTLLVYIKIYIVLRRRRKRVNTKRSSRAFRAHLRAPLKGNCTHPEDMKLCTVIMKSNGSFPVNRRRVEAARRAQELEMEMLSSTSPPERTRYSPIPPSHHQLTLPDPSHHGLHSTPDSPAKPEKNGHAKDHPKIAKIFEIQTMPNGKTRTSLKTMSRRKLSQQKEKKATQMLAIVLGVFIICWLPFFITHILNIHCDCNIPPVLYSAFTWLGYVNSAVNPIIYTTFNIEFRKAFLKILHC

5-HT1A receptors [9] = biological target: T1, 5-HT1A receptors; assay: 5-HT1A receptor affinity (Koek et al., 1998); format: binding; conditions: from pKi values of Koek et al.
5-HT1A receptors [10] = biological target: T1, 5-HT1A receptors; conditions: Schipper et al., 1991; cited from earlier work
dopamine D2 receptors [11] = biological target: T2, dopamine D2 receptors; conditions: Schipper et al., 1991; cited from earlier work
5-HT1B receptors = conditions: Schipper et al., 1991; Boddeke et al., 1992; cited from earlier work
5-HT1A receptors [12] = biological target: T1, 5-HT1A receptors; conditions: Koek et al., 1998; cited from earlier work
D2 receptors = D2 receptors (Homo sapiens, UniProt P14416); conditions: Koek et al., 1998; cited from earlier work
Chain of D2 receptors (P14416 whole entry): as above

rats = rats trained to discriminate flesinoxan (0.5 mg/kg i.p.) from saline; cited from earlier work
Cm mutant mice = Cm mutant mice (methylphenidate: both control and Cm mutants); Hess et al., 1996; cited from earlier work
[13] = C3H mice, 0.1 mg/kg, vs vehicle
[14] = C3H mice, 0.03 mg/kg, vs vehicle

NCCc1c[nH]c2ccc(O)cc12 [5-HT]
Ki (5-HT1B/1D receptor [1]): ~13.8 nM

Cc1ccc(N(CC2=NCCN2)c2cccc(O)c2)cc1 [phentolamine mesylate]
Ki (α1 receptor): ~5.4 nM

Clc1cnn(CCCCN2CCN(c3ncccn3)CC2)c1 [lesopitron, 2-[4-[4-(4-chloro-1H-pyrazol-1-yl)-butyl]-1-piperazinyl]pyrimidine]
intrinsic activity at the 5-HT1A receptor (5-HT1A receptors [2]): 0.70
affinity for other 5-HT receptor subtypes or other neurotransmitter receptors [3]: virtually no affinity

CCCN(CCC)C1CCc2cccc(O)c2C1 (stereo not shown) [8-OH-DPAT, 8-hydroxy-2(di-n-propylamino)tetralin]
ΔpKi for 5-HT1A and D2 receptors (5-HT1A receptors [4]): 2.94
effect on performance curves in PIP 30 s and PIP 45 s (mice (C57BL/6J; C3H); C3H mice, 0.01 mg/kg, vs vehicle, 0.01 mg/kg): not significantly different from the saline curve; also recorded: slightly disruptive
effect on performance curves in PIP 30 s and PIP 45 s (mice (C57BL/6J; C3H); [13]): not significantly different from the saline curve
attenuation of total ambulatory distance compared to vehicle ([5]; Cm mice, 0.1 mg/kg): ~50%
total frequency of zone crossings ([5]; Cm mice, 0.1 mg/kg, p=0.030): significantly decreased
total ambulatory distance ([5]; Cm mice, 0.1 mg/kg, vehicle 14702±2611, not statistically significant): 7813±2606 centimeters
attenuation of Cm hyperactivity ([5]; Cm mice, lower doses 0.001 or 0.01 mg/kg, data not shown): no significant attenuation
total ambulatory distance (wild-type mice; 0.1 mg/kg, vehicle 7720±2726, non-significant): 4517±1599 centimeters
Ki (α1 adrenergic receptors): 380 nM
Ki (5-HT1D receptors): 930 nM
Ki [6]: > 1000 nM

NCCc1c[nH]c2ccc(C(N)=O)cc12 [5-CT, 5-carboxyamidotryptamine]
Ki (5-HT1B/1D receptor [7]): 0.7 to 1.1 nM

Cl.O=C(NCCN1CCN(c2cccc3c2OCC(CO)O3)CC1)c1ccc(F)cc1 (single isomer, unassigned; (+)) [flesinoxan, (+)(4-fluoro-N-[2-[4-[2-(hydroxymethyl)-1,4-benzodioxane-5-yl] 1-piperazinyl]ethyl]benzamide) HCl]
ΔpKi for 5-HT1A and D2 receptors (5-HT1A receptors [4]): about 1.92
Ki (5-HT1A receptors [4]; converted from Ki of Schipper et al.): 1.7 nM
Ki (dopamine D2 receptors [8]): 141 nM
ΔpKi for 5-HT1A and D2 receptors (5-HT1A receptors [9]): 1.86
effect on response curve in PIP 30 s (mice (C57BL/6J; C3H); [14]): the peaks of the response curve is higher and the curves are sharper than vehicle
effect on response curve in PIP 45 s (mice (C57BL/6J; C3H); [14]): evident but less robust
effect on performance curves in PIP 30 s and PIP 45 s (mice (C57BL/6J; C3H); [13]): more comparable to saline curve
reduction in locomotor activity compared to vehicle-treated Cm mutants ([5]; Cm mutant mice, 0.3 mg/kg i.p.): more than 75%
total ambulatory distance ([5]; Cm mutant mice, 0.3 mg/kg i.p. 30 min before 40 min open-field session, vehicle 6112±1621): 1462±411 centimeters
frequency of zone crossings ([5]; Cm mutant mice, 0.3 mg/kg i.p., overall effect not statistically significant (p=0.0683)): decreased the frequency of zone crossings in Cm mutants to within the range of saline-treated wild-type mice
locomotion (distance traveled or zones crossed) (wild-type mice; 0.3 mg/kg i.p.): only marginally affected locomotion
Ki (5-HT1A receptors [10]): 1.7 nM
Ki (α1 adrenergic receptors): 380 nM
Ki (5-HT1D receptors): 160 nM
Ki (dopamine D2 receptors [11]): 140 nM
Ki (5-HT1B receptors): 810 nM
pKi for 5-HT1A receptors (5-HT1A receptors [12]): 8.91
pKi for D2 receptors (D2 receptors): 7.05
intrinsic activity at the 5-HT1A receptor (5-HT1A receptors [2]): 0.93
generalization to stimuli of α1 adrenoceptor antagonist, α2 adrenoceptor agonist, dopamine receptor agonist or antagonists (rats): did not generalize

CC(N)Cc1ccccc1 (stereo not shown) [amphetamine]
effect on performance (relative response rate curve) in PIP 30 s task (mice (C57BL/6J; C3H); 1 mg/kg): positive effects
effect on performance (relative response rate curve) in PIP 30 s task (mice (C57BL/6J; C3H); 2 mg/kg): positive effects
effect on performance (relative response rate curve) in PIP 30 s task (mice (C57BL/6J; C3H); 4 mg/kg): disrupted performance
total distance traveled ([5]; Cm mutant mice, 4 mg/kg i.p. 30 min before 40 min open-field session, saline 18386±6387): 5966±1938 cm
total distance traveled (wild-type mice; 4 mg/kg i.p. 30 min before 40 min open-field session, saline 3116±338): 11657±2370 centimeters
effect on hyperactivity / locomotor activity (Cm mutant mice): normalizes the hyperactivity

Cn1c(=O)cnn(CCCCN2CCN(c3ncccn3)CC2)c1=O [F11440, 4-methyl-2-(4-[4-(pyrimidin-2-yl)-piperazino]-butyl)-2H,4H-1,2,4-triazin-3,5-dione]
ΔpKi for 5-HT1A and D2 receptors (5-HT1A receptors [9]): 2.58
pKi for 5-HT1A receptors (5-HT1A receptors [12]): 8.33
pKi for D2 receptors (D2 receptors): 5.75
intrinsic activity at the 5-HT1A receptor (5-HT1A receptors [2]): 1.0

Reference: patent publication US20050004105A1, “Treatment for a attention-deficit hyperactivity disorder” (priority 2003, published 2005)
